Experimental data taken from patent US10501440B2, “Heteroarylcarboxamide derivatives as plasma kallikrein inhibitors” (Boehringer Ingelheim International GmbH, priority 2017, dated 2019).
Read-outs that look alike come from different tables or passages of the source.

Legend:
Format in all cases: biochemical
KLKB1 [1] = molecular target: T1, KLKB1 (Homo sapiens (Human), UniProt P03952); assay: Inhibition of human KLKB1 in dextran sulfate activated human PPP; conditions: human platelet poor plasma (EDTA) activated with 12.5 μg/mL dextransulfate, 24° C.; read-out: IC50
Description: Evaluation of the Inhibition of Human KLKB1 in Dextran Sulfate Activated Human PPP
Platelet poor plasma (PPP) obtained from human wholeblood, anticoagulated with EDTA, was activated with 12.5 μg/mL dextransulfate for 7 min on ice. The activated PPP was incubated with various concentrations of the test compound in assay buffer. Afterwards the mixture was incubated at 24° C. with 0.25 mM fluorogenic substrate H-Pro-Phe-Arg-AMC (11295 from Bachem) and measurements were performed in a kinetic interval every 2nd minute for 16 min using a Spectramax M5 (Molecular Devices) with the following settings of the wavelength excitation of 350 nm and wavelength emission of 450 nm.
(§1) The number of the compound corresponds to the number of the Example in the experimental section.

KLKB1 [2] = molecular target: T1, KLKB1; assay: Inhibition of KLKB1 (Ki), kinetic assay; conditions: 24° C., 0.25 mM H-Pro-Phe-Arg-AMC; IC50 corrected for KM of substrate
Description: (§2) The ability of compounds of formula (I) to inhibit plasma kallikrein (KLKB1), Factor XIIa (FXIIa), Factor XIa (FXIa), Factor Xa (FXa), Factor IIa (alpha-thrombin; FIIa), plasmin, trypsin, tissue kallikrein 1 (KLK1), Factor Vila (FVIIa), or FVIIa complexed with Tissue Factor, phospholipids and CaCl2 (FVIIa/TF/PL/CaCl2) was determined using the following biochemical assays in assay buffer (100 mM Tris, 150 mM NaCL, adjusted to a pH of 7.8 with HCl, and containing 0.1% (w/v) BSA and 0.05% (v/v) Tween20) in the presence of 1% (v/v) DMSO:
Evaluation of the Inhibition of KLKB1 (Ki)
Measurements were performed in a kinetic interval every 2nd minute for 16 min using a Spectramax M5 (Molecular Devices) with the following settings of the wavelength excitation of 350 nm and wavelength emission of 450 nm.
as §1
Calculation of pIC50 and Pki Values
The pIC50 values were then fitted using a four-parametric fitting procedure using GraphPad Prism (version 6; GraphPad Software, Inc.).
Where the IC50 is in molar and the KM value in mM.

KLKB1 [3] = molecular target: T1, KLKB1; assay: Inhibition of KLKB1 using an endpoint assay (fluorogenic substrate H-Pro-Phe-Arg-AMC); conditions: endpoint assay, 1 h at room temperature, 0.10 μM H-Pro-Phe-Arg-AMC; read-out: IC50
Description: as §2
Evaluation of the Inhibition of KLKB1 Using an Endpoint Assay
Human KLKB1 (0.01 U/mL; Enzyme Research Laboratories) or rat KLKB1 (0.625 nM; produced in-house) was incubated for 1 h at room temperature with 0.10 μM fluorogenic substrate H-Pro-Phe-Arg-AMC (11295 from Bachem) and various concentrations of the test compound in assay buffer. Subsequently, PPACK 11 (Calbiochem) was added as a stop solution to achieve a final concentration of 1 μM and fluorescence was measured using an Envision Reader (PerkinElmer) with the wavelength excitation setting of 355 nm and the wavelength emission setting of 460 nm.
as §1

KLKB1 [4] = molecular target: T1, KLKB1; assay: Inhibition of KLKB1 in kaolin activated human PPP; conditions: for IC50: read-out: IC50
Description: Evaluation of the Inhibition of KLKB1 in Kaolin Activated Human PPP
Platelet poor plasma (PPP) obtained from human wholeblood, anticoagulated with Na-Citrat, was incubated with various concentrations of the test compound together with either 25, 75, 250, or 750 μg/mL kaolin in assay buffer for 20 min at 37° C. such that for each kaolin dose used a concentration response was obtained for the test compound.
as §1

[5] = human platelet poor plasma (Na-Citrat), 25, 75, 250 or 750 μg/mL kaolin, global fit
[6] = human platelet poor plasma (Na-Citrat), 25, 75, 250 or 750 μg/mL kaolin, global fit, read-out: IC90

T1 sequence (P03952 391-638 limits assumed): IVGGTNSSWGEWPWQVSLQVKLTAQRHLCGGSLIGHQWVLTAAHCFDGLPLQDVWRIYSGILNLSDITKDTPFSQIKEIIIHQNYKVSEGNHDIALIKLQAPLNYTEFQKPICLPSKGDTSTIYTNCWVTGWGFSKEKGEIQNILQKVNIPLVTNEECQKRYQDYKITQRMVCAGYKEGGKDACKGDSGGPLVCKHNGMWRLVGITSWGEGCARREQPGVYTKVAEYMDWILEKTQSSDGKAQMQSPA
T1 sequence (P03952 20-390 partner limits assumed): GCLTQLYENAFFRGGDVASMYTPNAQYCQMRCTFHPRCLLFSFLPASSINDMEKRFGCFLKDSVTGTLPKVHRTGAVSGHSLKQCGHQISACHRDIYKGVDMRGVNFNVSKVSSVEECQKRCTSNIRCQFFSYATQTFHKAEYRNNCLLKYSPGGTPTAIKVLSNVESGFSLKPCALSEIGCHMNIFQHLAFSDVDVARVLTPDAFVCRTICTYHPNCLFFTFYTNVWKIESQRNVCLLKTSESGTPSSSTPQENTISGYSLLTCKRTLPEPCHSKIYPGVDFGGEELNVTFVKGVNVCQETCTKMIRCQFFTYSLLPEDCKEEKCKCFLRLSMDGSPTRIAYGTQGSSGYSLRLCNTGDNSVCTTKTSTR

Row | IC50 (KLKB1 [1]) [nM] | Ki (KLKB1 [2]) [nM] | IC50 (KLKB1 [3]) [nM] | IC50 (KLKB1 [4]; [5]) [nM] | IC90 (KLKB1 [4]; [6]) [nM] | Structure (SMILES) | IC90 (KLKB1 [4]) [nM]
1 | 46.7 | 0.6 | 1.9 |  |  | Cc1nc(N2C[C@@H]3[C@H](CO)[C@@H]3C2)ccc1Cn1cc(C(=O)N[C@@H]2CCc3c2ccnc3N)cn1 [Example 12] | 
2 |  |  | 1 |  |  | Cc1nc(N2CC3CC3C2)ccc1Cn1cc(C(=O)N[C@@H]2CCc3c2ccnc3N)c(C(C)C)n1 (stereo partly drawn) [Example 6] | 
3 |  | 0.4 | 0.8 | 18 | 446 | Cc1nc(N2CC3CC3C2)ccc1Cn1cc(C(=O)N[C@@H]2CCc3c2ccnc3N)c(C(F)(F)F)n1 (stereo partly drawn) [Example 4] | 
4 |  |  | 2.1 |  |  | Cc1nc(N2CC3(CCC3)C2)ccc1Cn1cc(C(=O)N[C@@H]2CCc3c2ccnc3N)cn1 [Example 25, 1-[6-(2-Aza-spiro[3.3]hept-2-yl)-2-methyl-pyridin-3-ylmethyl]-1H-pyrazole-4-carboxylic acid ((R)-1-amino-6,7-dihydro-5H-[2]pyrindin-5-yl)-amide] | 
5 | 50.3 | 1.5 | 1.7 | 23.9 | 232 | Cc1nc(N2CC3CC3C2)ncc1Cn1cc(C(=O)N[C@@H]2CCc3c2ccnc3N)cn1 (stereo partly drawn) [Example 11] | 
6 |  | 0.3 | 0.3 | 16.6 | 134 | Cc1cc2c(c(N)n1)CC[C@H]2NC(=O)c1cnn(Cc2ccc(N3CC4CC4C3)nc2C)c1 (stereo partly drawn) [Example 2] | 
7 |  |  | 0.6 |  |  | Cc1nc(N2C[C@@H]3[C@H](C)[C@@H]3C2)ccc1Cn1cc(C(=O)N[C@@H]2CCc3c2ccnc3N)cn1 [Example 24, 1-[2-Methyl-6-((1S,5R,6R)-6-methyl-3-aza-bicyclo[3.1.0]hex-3-yl)-pyridin-3-ylmethyl]-1H-pyrazole-4-carboxylic acid ((R)-1-amino-6,7-dihydro-5H-[2]pyrindin-5-yl)-amide] | 
8 |  | 1.9 | 1.1 | 17.9 | 199 | Cc1nc(N2CC3C(C2)C3(F)F)ccc1Cn1cc(C(=O)N[C@@H]2CCc3c2ccnc3N)c(C(F)(F)F)n1 (stereo partly drawn) [Example 7] | 
9 |  |  | 1.1 |  |  | COc1nn(Cc2ccc(N3CC4CC4C3)nc2C)cc1C(=O)N[C@@H]1CCc2c1ccnc2N (stereo partly drawn) [Example 22, N-[(5R)-1-Amino-5H,6H,7H-cyclopenta[c]pyridin-5-yl]-1-[(6-{3-azabicyclo[3.1.0]hexan-3-yl}-2-methylpyridin-3-yl)methyl]-3-methoxy-1H-pyrazole-4-carboxamide] | 
10 | 32.3 | 0.3 | 0.5 |  |  | Cc1nc(N2C[C@@H]3[C@H](C#N)[C@@H]3C2)ccc1Cn1cc(C(=O)N[C@@H]2CCc3c2ccnc3N)cn1 [Example 13, N-[(5R)-1-Amino-5H,6H,7H-cyclopenta[c]pyridin-5-yl]-1-({6-[(1R,5S,6R)-6-cyano-3-azabicyclo[3.1.0]hexan-3-yl]-2-methylpyridin-3-yl}methyl)-1H-pyrazole-4-carboxamide] | 
11 | 80.3 | 1.1 | 2 |  |  | Cc1nc(N2CCC3(CC3)C2)ccc1Cn1cc(C(=O)N[C@@H]2CCc3c2ccnc3N)cn1 [Example 14] | 
12 |  |  | 9.9 |  |  | Cc1nc(N2CC3C(C2)C3(C)C)ccc1Cn1cc(C(=O)N[C@@H]2CCc3c2ccnc3N)cn1 (stereo partly drawn) [Example 23, N-[(5R)-1-Amino-5H,6H,7H-cyclopenta[c]pyridin-5-yl]-1-[(6-{6,6-dimethyl-3-azabicyclo[3.1.0]hexan-3-yl}-2-methylpyridin-3-yl)methyl]-1H-pyrazole-4-carboxamide] | 
13 |  |  | 5.5 |  |  | Cc1nc(N2CC3C(C2)C3(F)F)ccc1Cn1cc(C(=O)N[C@@H]2CCc3c2ccnc3N)nn1 (stereo partly drawn) [Example 8] | 
14 |  |  | 1.4 |  |  | Cc1cc2c(c(N)n1)CC[C@H]2NC(=O)c1cn(Cc2cnc(N3CC4C(C3)C4(F)F)nc2C)nn1 (stereo partly drawn) [Example 21, N-[(5R)-1-Amino-3-methyl-5H,6H,7H-cyclopenta[c]pyridin-5-yl]-1-[(2-{6,6-difluoro-3-azabicyclo[3.1.0]hexan-3-yl}-4-methylpyrimidin-5-yl)methyl]-1H-1,2,3-triazole-4-carboxamide] | 
15 |  |  | 1 |  |  | Cc1nc(N2CC3CC3C2)ccc1Cn1cc(C(=O)N[C@@H]2CCc3c2ccnc3N)c(C(F)F)n1 (stereo partly drawn) [Example 19, N-[(5R)-1-Amino-5H,6H,7H-cyclopenta[c]pyridin-5-yl]-1-[(6-{3-azabicyclo[3.1.0]hexan-3-yl}-2-methylpyridin-3-yl)methyl]-3-(difluoromethyl)-1H-pyrazole-4-carboxamide] | 
16 | 61.2 | 0.4 | 0.8 |  |  | Cc1nc(N2CC3CC3C2)ccc1Cn1cc(C(=O)N[C@@H]2CCc3c2ccnc3N)nn1 (stereo partly drawn) [Example 5] | 
17 |  | 0.4 | 0.5 |  |  | Cc1cc2c(c(N)n1)CC[C@H]2NC(=O)c1cn(Cc2ccc(N3CC4CC4C3)nc2C)nc1C (stereo partly drawn) [Example 15, N-[(5R)-1-Amino-3-methyl-5H,6H,7H-cyclopenta[c]pyridin-5-yl]-1-[(6-{3-azabicyclo[3.1.0]hexan-3-yl}-2-methylpyridin-3-yl)methyl]-3-methyl-1H-pyrazole-4-carboxamide] | 
18 |  |  | 1.2 |  |  | Cc1nc(N2CC3(CC3)C2)ccc1Cn1cc(C(=O)N[C@@H]2CCc3c2ccnc3N)cn1 [Example 26, 1-[6-(5-Aza-spiro[2.3]hex-5-yl)-2-methyl-pyridin-3-ylmethyl]-1H-pyrazole-4-carboxylic acid ((R)-1-amino-6,7-dihydro-5H-[2]pyrindin-5-yl)-amide] | 
19 |  |  | 3.9 |  |  | Cc1nc(N2CC3C(C2)C3(F)F)ncc1Cn1cc(C(=O)N[C@@H]2CCc3c2ccnc3N)nn1 (stereo partly drawn) [Example 20, N-[(5R)-1-Amino-5H,6H,7H-cyclopenta[c]pyridin-5-yl]-1-[(2-{6,6-difluoro-3-azabicyclo[3.1.0]hexan-3-yl}-4-methylpyrimidin-5-yl)methyl]-1H-1,2,3-triazole-4-carboxamide] | 
20 |  | 0.3 | 0.7 | 20.1 | 238 | Cc1nc(N2CC3CC3C2)ccc1Cn1cc(C(=O)N[C@@H]2CCc3c2ccnc3N)c(C)n1 (stereo partly drawn) [Example 3] | 

Row | Structure (SMILES) | IC50 (KLKB1 [1]) [nM] | Ki (KLKB1 [2]) [nM] | IC50 (KLKB1 [3]) [nM] | IC50 (KLKB1 [4]; [5]) [nM] | IC90 (KLKB1 [4]; [6]) [nM] | IC90 (KLKB1 [4]) [nM]
21 | Cc1cc2c(c(N)n1)CC[C@H]2NC(=O)c1cnn(Cc2cnc(N3CC4CC4C3)nc2C)c1 (stereo partly drawn) [Example 17, N-[(5R)-1-Amino-3-methyl-5H,6H,7H-cyclopenta[c]pyridin-5-yl]-1-[(2-{3-azabicyclo[3.1.0]hexan-3-yl}-4-methylpyrimidin-5-yl)methyl]-1H-pyrazole-4-carboxamide] |  | 0.5 | 1 | 52.2 |  | 511
22 | Cc1nc(N2CC3CC3C2)ncc1Cn1cc(C(=O)N[C@@H]2CCc3c2ccnc3N)nn1 (stereo partly drawn) [Example 16, N-[(5R)-1-Amino-5H,6H,7H-cyclopenta[c]pyridin-5-yl]-1-[(2-{3-azabicyclo[3.1.0]hexan-3-yl}-4-methylpyrimidin-5-yl)methyl]-1H-1,2,3-triazole-4-carboxamide] |  | 2.2 | 5.3 |  |  | 
23 | Cc1cc2c(c(N)n1)CC[C@H]2NC(=O)c1cn(Cc2cnc(N3CC4CC4C3)nc2C)nn1 (stereo partly drawn) [Example 18, N-[(5R)-1-Amino-3-methyl-5H,6H,7H-cyclopenta[c]pyridin-5-yl]-1-[(2-{3-azabicyclo[3.1.0]hexan-3-yl}-4-methylpyrimidin-5-yl)methyl]-1H-1,2,3-triazole-4-carboxamide] |  | 0.5 | 1.2 |  |  | 
24 | Cc1cc2c(c(N)n1)CC[C@H]2NC(=O)c1cnn(Cc2ccc(N3CC4C(C3)C4(F)F)nc2C)c1 (stereo partly drawn) [Example 10, N-[(5R)-1-Amino-3-methyl-5H,6H,7H-cyclopenta[c]pyridin-5-yl]-1-[(6-{6,6-difluoro-3-azabicyclo[3.1.0]hexan-3-yl}-2-methylpyridin-3-yl)methyl]-1H-pyrazole-4-carboxamide] |  | 0.4 | 0.4 | 16.2 |  | 96.2
